Our source for the GI50 and TGI values is PubChem BioAssay (NCI).

Each structure is given as a SMILES string.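 Test compounds were applied to cells in 96-well plates for 48 hours at 5 doses. The concentration for 50% growth inhibition is given as GI50. TGI is the concentration that stops growth completely.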

Common to all, as to assay: NCI anticancer screen, dose series, 48 h
In assay [1] the test system is NCI-H23 lung.
Assay [2] relates to LOX IMVI melanoma.
The test system of assay [3] is SR leukemia.
Assay [4] relates to IGROV1 ovarian.
In assay [5] the test system is SK-MEL-28 melanoma.
The subject of assay [6] is SK-MEL-2 melanoma.
Assay [7] relates to TK-10 renal.
Assay [8] relates to MDA-MB-435.
In assay [9] the test system is NCI-H522 lung.
For assay [10], the system named is UACC-257 melanoma.

Turning to `COc1cc(C2C3=C(COC3=O)Nc3c2ccc2c3CCCC2)cc2c1OCO2` (centres undefined), the GI50 in assay [1] was 0.0439 µM; in assay [2] it was 0.0652 µM; in assay [3] it was 0.0354 µM; in assay [4] it was 0.0765 µM; in assay [5], 0.0547 µM; in [6], 0.068 µM. Also, the GI50 is 14.9 µM in [7], 0.0199 µM in [8] and 0.0239 µM in [9]. The TGI in assay [1] was 13.7 µM; in assay [2], more than 100 µM; in assay [3], more than 21 µM; in assay [4], more than 100 µM; in assay [5], more than 100 µM; in [6], 27.4 µM. In addition, the TGI in assay [7] is more than 94.3 µM; in assay [8], 0.0497 µM; in [9] it was 1.46 µM.
In the case of `C[C@]1(Cn2ccnn2)C(C(=O)O)N2C(=O)CC2S1(=O)=O` (some centres undefined), the GI50 in assay [1], in assay [3], in assay [4], in [5], in assay [6] and in assay [7] was more than 100 µM throughout. Further, the GI50 in [8], in assay [9] and in [10] was more than 100 µM throughout. Besides, the TGI in assay [1], in [3], in [4], in assay [5], in assay [6] and in [7] was more than 100 µM in each case. For the same molecule, the TGI in assay [8], in assay [9] and in assay [10] was more than 100 µM throughout.
Turning to `CCCNC(=O)c1ccc(Cl)cc1Cl`, the GI50 in assay [1], in assay [2], in [3], in assay [4], in assay [5] and in assay [6] was more than 100 µM throughout. The GI50 in [7], in assay [8] and in assay [10] was more than 100 µM throughout. Moreover, the TGI in assay [1], in assay [2], in [3], in assay [4], in [5] and in assay [6] was more than 100 µM in each case. The TGI in assay [7], in assay [8] and in assay [10] was more than 100 µM throughout.
As for `Cc1cc(N2CCCC2)nc(NCc2cc(Nc3ccnc4cc(Cl)ccc34)ccc2F)n1`, the GI50 in assay [1] is 1.3 µM; in [2] it was 1.12 µM; in assay [3], 0.243 µM; in assay [5], 1.78 µM; in assay [6], 1.74 µM; in [7], 2.14 µM. Moreover, the GI50 was 1.51 µM in assay [8], 1.41 µM in assay [9] and 1.31 µM in [10]. Moreover, the TGI came to 3.63 µM in assay [1]; 2.48 µM in assay [2]; 3.48 µM in [5]; 3.31 µM in assay [6]; 3.72 µM in assay [7]; 2.99 µM in assay [8]. The TGI in assay [9] came out at 3.09 µM; in assay [10], 2.66 µM.
As for `CC(/C=C/c1ccccc1)=N\NC(N)=S`, the TGI is more than 100 µM in assay [1]; more than 100 µM in assay [2]; 65.3 µM in assay [3]; more than 100 µM in assay [4]; more than 100 µM in [5]; more than 100 µM in assay [7]. The results for the TGI in assay [8] and in assay [10] were 84.4 µM and more than 100 µM, respectively.
Turning to `Cc1ccc(C2=Nc3c(N)ncnc3NC(c3ccc4c(c3)OCO4)C2)cc1` (centres undefined), the GI50 in assay [1] is 10.2 µM; in [2], 6.38 µM; in assay [3], 0.249 µM; in [4] it was 3.34 µM; in assay [5] it was 10.2 µM; in [7] it was 4.47 µM. Further, the figures for the GI50 in [8], in assay [9] and in [10] were 1.15 µM, 3.67 µM and 40 µM, respectively. Besides, the TGI in assay [1] worked out at 63.3 µM; in [2] it was 25 µM; in [3] it was 3.85 µM; in assay [4], 26.2 µM; in assay [5] it was 38 µM; in assay [7], 21.1 µM. For the same molecule, the TGI was 4.12 µM in [8], 23.2 µM in assay [9] and more than 100 µM in assay [10].
On to `C=CC/C(=C\COP(=O)(OCc1ccc([N+](=O)[O-])o1)N(C)CCCCCl)CC/C=C(\C)CCC=C(C)C` (centres undefined), for which the GI50 in assay [2] is 13.8 µM; in assay [3] it was 3.46 µM; in [5], 17.2 µM; in assay [6], 13.6 µM; in assay [7] it was 83.8 µM; in assay [8], 16.8 µM. Further, in [10], the GI50 was 16.5 µM. In addition, the TGI was 31.4 µM in [2]; 41.8 µM in [3]; 32.9 µM in [5]; 26.4 µM in assay [6]; more than 100 µM in [7]; 44.1 µM in assay [8]. The same molecule returned a TGI in assay [10] of 30 µM.
With `OCCNCCCOc1ccc2ncnc(Nc3ccc(Oc4cccc(C(F)(F)F)c4)c(Cl)c3)c2c1`, the GI50 in assay [1] was 1.63 µM; in assay [2], 1.71 µM; in [3], 1.62 µM; in assay [4], 0.584 µM; in [5], 1.75 µM; in assay [6] it was 1.7 µM. Moreover, the values for the GI50 in [7] and in assay [8] were 1.13 µM and 1.72 µM, respectively. The TGI in [1] amounted to 3.13 µM; in [2], 3.15 µM; in assay [3] it was 4.65 µM; in [4], 2.14 µM; in assay [5], 3.21 µM; in assay [6] it was 3.38 µM. Moreover, the TGI in assay [7] worked out at 2.54 µM; in assay [8], 3.21 µM.
Take `NCCOc1ccccc1/C=C1\c2ccccc2-c2ccc([N+](=O)[O-])cc21`: the GI50 in assay [1] is 1.7 µM; in [2], 1.33 µM; in [4], 1.35 µM; in assay [5], 1.75 µM; in [6], 1.8 µM; in assay [8], 1.68 µM. Besides, the GI50 in [9] is 1.49 µM; in assay [10] it was 1.7 µM. Besides, the TGI in [1] was 3.23 µM; in assay [2] it was 2.66 µM; in assay [4], 2.68 µM; in assay [5], 3.18 µM; in [6], 3.34 µM; in assay [8], 3.09 µM. Also, the figures for the TGI in [9] and in [10] were 3.05 µM and 3.31 µM, respectively.
Regarding `Cn1c2ccccc2c2c3[nH][nH]c(=O)c3c3c4ccccc4[nH]c3c21`, the GI50 is 1.85 µM in assay [1]; 1.09 µM in assay [2]; 3.74 µM in assay [5]; 1.77 µM in assay [6]; 4.74 µM in assay [7]; 2.03 µM in assay [8]. Besides, the GI50 in assay [9] is 1.56 µM. For the same molecule, the TGI stood at 8.37 µM in assay [1]; 6.62 µM in assay [2]; 12.9 µM in assay [5]; 5.78 µM in [6]; 57.2 µM in assay [7]; 11.1 µM in assay [8]. Further, the TGI in [9] was found to be 10.4 µM.
Turning to `COC(=O)C(CBr)CBr`, the TGI is 19.5 µM in [1]; 7.75 µM in [2]; 25.5 µM in assay [4]; 9.36 µM in [5]; 30.5 µM in assay [6]; 10.8 µM in assay [7]. Also, the TGI in assay [8] was found to be 10.1 µM; in assay [9], 4.76 µM; in assay [10] it was 12.5 µM.
Take `COc1cccc2c1C(=O)c1c(O)c3c(c(O)c1C2=O)C[C@@](O)(C(=O)CO)CC3OC1CC(O)C(O)C(C)O1` (some centres undefined): the TGI in assay [1] was determined as 0.501 µM; in assay [2], 2.53 µM; in assay [4], 23.6 µM; in assay [5] it was 2.28 µM; in assay [6] it was 1.58 µM; in [7], 11.6 µM. Besides, the values for the TGI in assay [8], in assay [9] and in assay [10] were 2.05 µM, 1.5 µM and 2.99 µM, respectively.
Take `c1cncc(C2Nc3cccc4cccc(c34)N2)c1`: the GI50 was 77.6 µM in [1]; 21.7 µM in [2]; 27.5 µM in [3]; 11.8 µM in assay [4]; 64 µM in [5]; 30.9 µM in [6]. Further, the GI50 was 26.8 µM in [7], 35.7 µM in assay [8] and 14.6 µM in assay [9]. Besides, the TGI is more than 100 µM in assay [1]; 57.6 µM in [2]; more than 100 µM in [3]; 25.6 µM in [4]; more than 100 µM in assay [5]; 64.4 µM in [6]. Moreover, the TGI in [7] was 73.6 µM; in assay [8] it was more than 100 µM; in assay [9], 35.1 µM.
In the case of `Cc1ccc(C2=C(c3ccc(C)cc3)C3(c4ccc(C)cc4)C4C(=O)c5ccccc5C(=O)C4C2(c2ccc(C)cc2)S3=O)cc1` (centres undefined), the GI50 is more than 100 µM in assay [1]; more than 100 µM in assay [2]; more than 100 µM in assay [4]; 60.6 µM in [5]; more than 100 µM in [6]; more than 100 µM in assay [7]. Besides, the GI50 in [8], in assay [9] and in [10] was more than 100 µM each time. The TGI in [1], in assay [2], in assay [4], in assay [5], in assay [6] and in assay [7] was more than 100 µM throughout. Further, the TGI in assay [8], in assay [9] and in assay [10] was more than 100 µM each time.
Take `Cc1ccn2c(CCc3nnc4cc(C)ccn34)nnc2c1`: the TGI in [1], in [3], in [4], in assay [5], in [6] and in [7] was more than 100 µM each time. Also, the TGI in assay [8], in assay [9] and in assay [10] was more than 100 µM throughout.
As to `O=c1c(Br)cc2c(-c3ccccc3)c3cc(Br)c(O)c(Br)c3oc-2c1Br`, the TGI in assay [1], in assay [2], in [4], in [5], in [7] and in [8] was more than 100 µM throughout. The molecule also registered a TGI in assay [10] of more than 100 µM.
`CC1(C)C=N[N+]2(C)C3C=CC(CC3)C12` (centres undefined): the TGI in assay [1], in assay [2], in assay [3], in [4], in assay [5] and in [6] was more than 100 µM in each case. Moreover, the TGI in assay [7], in assay [9] and in assay [10] was more than 100 µM each time.
As for `C=C(CC(=O)O)C(=O)O` (tested in a mixture with another compound), the GI50 in assay [1], in assay [2], in assay [3], in [4], in [5] and in assay [6] was more than 50 µg/mL in each case. For the same molecule, the GI50 in assay [7], in assay [9] and in assay [10] was more than 50 µg/mL each time. Besides, the TGI in [1], in [2], in assay [3], in assay [4], in [5] and in assay [6] was more than 50 µg/mL throughout. For the same molecule, the TGI in assay [7], in [9] and in [10] was more than 50 µg/mL throughout.
For `CCCCc1n(Cc2ccc3ccccc3c2)cc[n+]1Cc1ccc2ccccc2c1`, the GI50 in [1] is 0.793 µM; in [4] it was 0.732 µM; in [5], 1.32 µM; in assay [7] it was 1.37 µM; in [8], 1.02 µM; in assay [10] it was 1.04 µM. Further, the TGI in [1] stood at 2.31 µM; in assay [4], 2.26 µM; in [5] it was 2.69 µM; in assay [7], 2.76 µM; in assay [8], 2.26 µM; in [10], 2.32 µM.
Regarding `CCN(CC)C(=O)N1CCN(C=S)CC1`, the TGI in [1], in assay [2], in assay [3], in [4], in assay [5] and in assay [6] was more than 100 µM in each case. For the same molecule, the TGI in assay [7], in assay [9] and in assay [10] was more than 100 µM throughout.
For `CCOC(=N)CC(=O)Nc1cccc(Cl)c1`, the TGI in assay [1], in [2], in assay [3], in assay [4], in assay [5] and in [6] was more than 100 µM throughout. Moreover, the TGI in [7], in assay [9] and in assay [10] was more than 100 µM in each case.
